Results published in BindingDB's records for PubMed 2894455 (University of Missouri, 1988).
Several values for one entry are separate records, joined by “and”; a condition that tells them apart may be missing. Identical values can stand only once.

Each molecule was assayed against T1, Alpha-2B adrenergic receptor (Didelphis virginiana, UniProt O77715).
T1 sequence (O77715 whole entry): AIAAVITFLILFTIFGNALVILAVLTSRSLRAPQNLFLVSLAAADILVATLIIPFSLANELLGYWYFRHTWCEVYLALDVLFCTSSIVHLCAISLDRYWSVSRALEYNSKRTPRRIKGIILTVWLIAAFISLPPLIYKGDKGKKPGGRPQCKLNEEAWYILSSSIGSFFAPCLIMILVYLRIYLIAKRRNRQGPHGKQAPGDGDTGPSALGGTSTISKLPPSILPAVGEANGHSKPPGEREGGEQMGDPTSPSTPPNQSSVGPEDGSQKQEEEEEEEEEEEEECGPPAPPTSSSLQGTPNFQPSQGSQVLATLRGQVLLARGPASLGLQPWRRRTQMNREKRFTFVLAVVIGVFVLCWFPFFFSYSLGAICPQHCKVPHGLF

Structure (SMILES)	Ki
Clc1cccc(Cl)c1N=C1NCCN1 [2-(2,6-dichloroanilino)-2-imidazoline]	14 nM
COc1cccc(OC)c1OCCNCC1Oc2ccccc2OC1c1ccccc1 (centres undefined) [NSC_185453]	0.27 nM
COc1cc2nc(N3CCN(C(=O)c4ccco4)CC3)nc(N)c2cc1OC [[3H]-Minipress]	7.4 nM and 7.6 nM
CNCC(O)c1ccc(O)c(O)c1 (centres undefined) [EPINEPHRINE]	31 nM
Cc1ccc(N(CC2=NCCN2)c2cccc(O)c2)cc1 [SMR000059054]	5.6 nM
NCC(O)c1ccc(O)c(O)c1 (stereo not drawn) [Noradrenaline,(+)]	122 nM
Cc1cc(C(C)(C)C)c(O)c(C)c1CC1=NCCN1 [SMR000059324]	10 nM
O=C(c1ccc(F)cc1)C1CCN(CCn2c(=O)[nH]c3ccccc3c2=O)CC1 [3-(2-{4-[(4-fluorophenyl)carbonyl]piperidin-1-yl}ethyl)-1,2,3,4-tetrahydroquinazoline-2,4-dione]	143 nM
Brc1c(NC2=NCCN2)ccc2nccnc12 [UK 14,304]	22 nM
